Like-named read-outs stand apart in the source and are kept apart here.
Tests used:
[1] = system: non-insulin-dependent diabetes induced in rats by Streptozotocin; assay: Antidiabetic activity by the oral route in the nOSTZ rat model of non-insulin-dependent diabetes; assay type: in vivo; details: 96 h, nOSTZ diabetic rats; for change in vivo at 20 mg/kg: 20 mg/kg/4d; for change in vivo at 200 mg/kg: 200 mg/kg/4d
Method: To determine an antidiabetic activity by the oral route on an experimental model of non-insulin-dependent diabetes induced in rats by Streptozotocin.
The non-insulin-dependent diabetes model is obtained in rats by a neonatal injection (on the day of birth) of Streptozotocin.
The diabetic rats used are 8 weeks old.
The animals are kept, from the day of their birth to the day of the experiment, in an animal house at a regulated temperature of 21 to 22° C., and subjected to a fixed cycle of light (from 7.00 h to 19.00 h) and of darkness (from 19.00 h to 7.00 h). Their diet consisted of a maintenance diet; water and food were provided “ad libitum”, with the exception of the 2 hours of fasting preceding the tests where food is withdrawn.
On the day of the experiment, the rats are treated orally with the test product, and then 90′ later, are anaesthetized with Nembutal. 2 hours after the administration of the product, a 500-μl blood sample is collected from the tail.
The blood is collected over Heparin. All the tubes are placed on ice at the time the samples are collected. These are then centrifuged for 10 minutes at 3000 revolutions/minute to separate the organized elements as rapidly as possible.
The plasma obtained is distributed into 2 aliquots: one for the assay of glycaemia and lactatamia; these assays are carried out immediately the other for the assay of insulinaemia—is stored in the freezer at −20° C. up to the day of the assay They are determined by the glucose oxydase and lactate oxydase technique (Eppendorf Ebio 6666) The plasma insulin is assayed by a radio-immunological method

SMILES	melting point [°C]	change in vivo at 20 mg/kg ([1]; read-out: % Glycaemia) [%]	change in vivo at 200 mg/kg ([1]; read-out: % Glycaemia) [%]	change in vivo at 20 mg/kg ([1]; read-out: % Insulinaemia) [%]	change in vivo at 200 mg/kg ([1]; read-out: % Insulinaemia) [%]
O=C1NC(=O)C(CCOc2ccccc2)S1 (centres unmarked) [Compound 1, 5-(2-phenoxyethyl)-2,4-thiazolidinedione]	–	-15	-26	–	–
O=C1NC(=O)C(CCOc2ccc(F)cc2)S1 (centres unmarked) [Compound 2, 5-[2-(4-fluorophenoxy)ethyl]-2,4-thiazolidinedione]	94 to 96	-2	-19	-1	-27
O=C1NC(=O)C(CCCOc2ccc(F)cc2)S1 (centres unmarked) [Compound 3, 5-[3-(4-fluorophenoxy)propyl]-2,4-thiazolidinedione]	121 to 123	-17	-17	1	-37
O=C1NC(=O)C(CCOc2ccc(Cl)cc2)S1 (centres unmarked) [Compound 4]	116 to 118	-3	-17	-35	-33
O=C1NC(=O)C(CCOc2ccc(Br)cc2)S1 (centres unmarked) [Compound 5]	104 to 106	-10	-23	-9	-62
N#Cc1ccc(OCCC2SC(=O)NC2=O)cc1 (centres unmarked) [Compound 6, 5-[2-(4-cyanophenoxy)ethyl]-2,4-thiazolidinedione]	–	-20	-26	0	-49
O=C1NC(=O)C(CC2COc3ccccc3O2)S1 (centres unmarked) [Compound 7]	145	1	-10	6	-47
Cc1ccc(OCCC2SC(=O)NC2=O)cc1 (centres unmarked) [Compound 8]	119 to 121	-3	-9	-30	-26
O=C1NC(=O)C(CCCCCCOc2ccc(Cl)cc2)S1 (centres unmarked) [Compound 9]	68 to 70	10	-16	-15	-30
Cc1ccc(C)c(OCCC2SC(=O)NC2=O)c1 (centres unmarked) [Compound 18]	–	-8	-9	-4	-17

Further lines, with some results ahead:

melting point [°C]	SMILES	change in vivo at 20 mg/kg ([1]; read-out: % Glycaemia) [%]	change in vivo at 200 mg/kg ([1]; read-out: % Glycaemia) [%]	change in vivo at 20 mg/kg ([1]; read-out: % Insulinaemia) [%]	change in vivo at 200 mg/kg ([1]; read-out: % Insulinaemia) [%]
134 to 136	Cc1ccc(C)c(OCCC2SC(=O)NC2=O)c1 (centres unmarked) (hydrate or solvate) [Compound 18]	–	–	–	–
98 to 100	O=C1NC(=O)C(CCCCCOc2ccc(F)cc2)S1 (centres unmarked) [Compound 10]	-1	-9	-12	-48
185 to 187	O=C1NC(=O)C(CCOc2cccc3ccccc23)S1 (centres unmarked) [Compound 11]	-12	-21	-31	-23
121	O=C1NC(=O)C(C(COc2ccc(F)cc2)c2ccccc2)S1 (centres unmarked) [Compound 12]	-6	-6	-35	-56
87	O=C1NC(=O)C(CCOc2cccc(F)c2)S1 (centres unmarked) [Compound 13]	-14	-2	–	–
138	O=C1NC(=O)C(CCOc2ccccc2F)S1 (centres unmarked) [Compound 14]	-4	-7	-23	-51
133	O=C1NC(=O)C(CCOc2ccc3ccccc3c2)S1 (centres unmarked) [Compound 15]	-14	-22	-9	-12
131 to 133	O=C1NC(=O)C(C(O)COc2ccc(F)cc2)S1 (centres unmarked) [Compound 16, 5-{[1-hydroxy-2-(4-fluorophenoxy)]ethyl}-2,4-thiazolidinedione]	-6	-22	-12	0
96 to 98	O=C1NC(=O)C(CC(O)COc2ccc(F)cc2)S1 (centres unmarked) [Compound 17, 5-{[2-hydroxy-3-(4-fluorophenoxy)]propyl}-2,4-thiazolidinedione]	-20	-7	4	-5
106 to 108	CC(COc1ccccc1)C1SC(=O)NC1=O (centres unmarked) [Compound 19, 5-[1-methyl-2-phenoxyethyl]-2,4-thiazolidinedione]	-6	-20	2	-10
101 to 103	COCCc1ccc(OCCC2SC(=O)NC2=O)cc1 (centres unmarked) [Compound 20]	-10	-14	–	–
234 to 236	O=C1NC(=O)C(CCOc2ccc(C(=O)O)cc2)S1 (centres unmarked) [Compound 21]	-1	-9	–	–

— patent US6437143B1, “Thiazolidone-2 derivatives, 4-diketone substituted, method for obtaining them and pharmaceutical compositions containing same” (Merck Patent Gesellschaft mit beschrankter Haftung, priority 1996, dated 2002)
